{"source": "paper PMC11903733", "about": "(Frontiers in Pharmacology, 2025)", "key": {"CDK7": {"target": "CDK7 (Homo sapiens, UniProt P50613)", "assay": "SelectScreen kinase profiling", "type": "biochemical", "experimental": "(§1) The kinase selectivity analysis of LTM-1 was performed utilizing the SelectScreen Kinase Profiling Service offered by Thermo Fisher Scientific. In a dose-response assay featuring a ten-point dilution series from 0.25 μM to 128 μM, the inhibitory effects of LTM-1 on substrate phosphorylation reactions catalyzed by a panel of kinases were assessed. Consequently, the half-maximal inhibitory concentrations (IC50 values) for each kinase were determined."}, "PLK1": {"target": "PLK1 (Homo sapiens, UniProt P53350)", "assay": "SelectScreen kinase profiling", "type": "biochemical", "experimental": "as §1"}, "PLK2": {"target": "PLK2 (Homo sapiens, UniProt Q9NYY3)", "sequence (Q9NYY3 whole entry)": "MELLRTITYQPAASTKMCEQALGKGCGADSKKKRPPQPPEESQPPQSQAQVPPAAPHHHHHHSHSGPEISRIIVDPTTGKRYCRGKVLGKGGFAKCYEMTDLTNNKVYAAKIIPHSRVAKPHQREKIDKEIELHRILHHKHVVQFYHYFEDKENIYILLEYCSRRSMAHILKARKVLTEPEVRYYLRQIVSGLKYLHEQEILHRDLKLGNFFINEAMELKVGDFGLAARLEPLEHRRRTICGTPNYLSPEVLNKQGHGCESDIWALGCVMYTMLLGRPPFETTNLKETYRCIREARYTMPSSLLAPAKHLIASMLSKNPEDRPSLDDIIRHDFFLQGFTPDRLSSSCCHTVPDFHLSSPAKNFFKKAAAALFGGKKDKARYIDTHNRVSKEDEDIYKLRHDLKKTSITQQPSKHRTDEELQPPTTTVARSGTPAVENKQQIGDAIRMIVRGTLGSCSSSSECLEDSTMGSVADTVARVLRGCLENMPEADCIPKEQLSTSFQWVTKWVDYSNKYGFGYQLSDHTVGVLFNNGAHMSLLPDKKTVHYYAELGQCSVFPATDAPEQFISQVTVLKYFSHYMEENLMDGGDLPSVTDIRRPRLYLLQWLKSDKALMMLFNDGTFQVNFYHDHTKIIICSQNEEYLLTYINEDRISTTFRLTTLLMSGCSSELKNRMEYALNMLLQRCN", "assay": "SelectScreen kinase profiling", "type": "biochemical", "experimental": "as §1"}, "CDK1": {"target": "CDK1 (Homo sapiens, UniProt P06493)", "assay": "SelectScreen kinase profiling", "type": "biochemical", "experimental": "as §1"}, "BLK": {"target": "BLK (Homo sapiens, UniProt P51451)", "assay": "SelectScreen kinase profiling", "type": "biochemical", "experimental": "as §1"}, "ABL1": {"target": "ABL1 (Homo sapiens, UniProt P00519)", "assay": "SelectScreen kinase profiling", "type": "biochemical", "experimental": "as §1"}, "DDR2": {"target": "DDR2 (Homo sapiens, UniProt Q16832)", "assay": "SelectScreen kinase profiling", "type": "biochemical", "experimental": "as §1"}, "EPHB2": {"target": "EPHB2 (Homo sapiens, UniProt P29323)", "assay": "SelectScreen kinase profiling", "type": "biochemical", "experimental": "as §1"}, "NTRK1": {"target": "NTRK1 (Homo sapiens, UniProt P04629)", "assay": "SelectScreen kinase profiling", "type": "biochemical", "experimental": "as §1"}, "FES": {"target": "FES (Homo sapiens, UniProt P07332)", "assay": "SelectScreen kinase profiling", "type": "biochemical", "experimental": "as §1"}, "ZAK": {"target": "ZAK (Homo sapiens, UniProt Q9NYL2)", "assay": "SelectScreen kinase profiling", "type": "biochemical", "experimental": "as §1"}, "CDK6": {"target": "CDK6 (Homo sapiens, UniProt Q00534)", "sequence (Q00534 whole entry)": "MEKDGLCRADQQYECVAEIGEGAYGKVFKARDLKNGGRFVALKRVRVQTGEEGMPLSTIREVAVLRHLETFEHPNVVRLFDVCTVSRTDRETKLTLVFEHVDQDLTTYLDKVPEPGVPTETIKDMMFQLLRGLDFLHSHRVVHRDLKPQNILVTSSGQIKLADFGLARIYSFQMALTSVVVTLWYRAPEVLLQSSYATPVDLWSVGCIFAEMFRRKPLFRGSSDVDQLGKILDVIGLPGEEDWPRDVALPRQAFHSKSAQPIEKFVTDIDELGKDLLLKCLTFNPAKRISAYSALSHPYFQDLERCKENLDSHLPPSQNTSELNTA", "sequence (P24385 whole entry partner)": "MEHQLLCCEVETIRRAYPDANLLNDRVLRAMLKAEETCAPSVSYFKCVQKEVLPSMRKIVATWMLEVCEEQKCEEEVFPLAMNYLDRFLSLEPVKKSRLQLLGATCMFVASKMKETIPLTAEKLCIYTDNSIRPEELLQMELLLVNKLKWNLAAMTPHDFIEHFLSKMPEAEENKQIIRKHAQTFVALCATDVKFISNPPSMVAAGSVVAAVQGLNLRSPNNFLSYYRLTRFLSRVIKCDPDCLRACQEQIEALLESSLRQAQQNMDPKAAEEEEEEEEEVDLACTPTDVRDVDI", "assay": "SelectScreen kinase profiling", "type": "biochemical", "experimental": "as §1"}, "PIM1": {"target": "PIM1 (Homo sapiens, UniProt P11309)", "sequence (P11309 whole entry)": "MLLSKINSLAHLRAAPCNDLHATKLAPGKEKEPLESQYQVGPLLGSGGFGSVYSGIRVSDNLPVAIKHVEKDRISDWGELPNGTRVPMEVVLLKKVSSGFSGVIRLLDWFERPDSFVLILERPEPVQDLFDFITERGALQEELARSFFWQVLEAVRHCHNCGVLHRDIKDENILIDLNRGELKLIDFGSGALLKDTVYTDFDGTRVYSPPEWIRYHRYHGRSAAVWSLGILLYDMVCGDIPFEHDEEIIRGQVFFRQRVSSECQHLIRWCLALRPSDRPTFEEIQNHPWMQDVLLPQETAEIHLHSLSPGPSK", "assay": "SelectScreen kinase profiling", "type": "biochemical", "experimental": "as §1"}, "BTK": {"target": "BTK (Homo sapiens, UniProt Q06187)", "assay": "SelectScreen kinase profiling", "type": "biochemical", "experimental": "as §1"}, "NTRK3": {"target": "NTRK3 (Homo sapiens, UniProt Q16288)", "assay": "SelectScreen kinase profiling", "type": "biochemical", "experimental": "as §1"}, "DDR1": {"target": "DDR1 (Homo sapiens, UniProt Q08345)", "sequence (Q08345 19-913)": "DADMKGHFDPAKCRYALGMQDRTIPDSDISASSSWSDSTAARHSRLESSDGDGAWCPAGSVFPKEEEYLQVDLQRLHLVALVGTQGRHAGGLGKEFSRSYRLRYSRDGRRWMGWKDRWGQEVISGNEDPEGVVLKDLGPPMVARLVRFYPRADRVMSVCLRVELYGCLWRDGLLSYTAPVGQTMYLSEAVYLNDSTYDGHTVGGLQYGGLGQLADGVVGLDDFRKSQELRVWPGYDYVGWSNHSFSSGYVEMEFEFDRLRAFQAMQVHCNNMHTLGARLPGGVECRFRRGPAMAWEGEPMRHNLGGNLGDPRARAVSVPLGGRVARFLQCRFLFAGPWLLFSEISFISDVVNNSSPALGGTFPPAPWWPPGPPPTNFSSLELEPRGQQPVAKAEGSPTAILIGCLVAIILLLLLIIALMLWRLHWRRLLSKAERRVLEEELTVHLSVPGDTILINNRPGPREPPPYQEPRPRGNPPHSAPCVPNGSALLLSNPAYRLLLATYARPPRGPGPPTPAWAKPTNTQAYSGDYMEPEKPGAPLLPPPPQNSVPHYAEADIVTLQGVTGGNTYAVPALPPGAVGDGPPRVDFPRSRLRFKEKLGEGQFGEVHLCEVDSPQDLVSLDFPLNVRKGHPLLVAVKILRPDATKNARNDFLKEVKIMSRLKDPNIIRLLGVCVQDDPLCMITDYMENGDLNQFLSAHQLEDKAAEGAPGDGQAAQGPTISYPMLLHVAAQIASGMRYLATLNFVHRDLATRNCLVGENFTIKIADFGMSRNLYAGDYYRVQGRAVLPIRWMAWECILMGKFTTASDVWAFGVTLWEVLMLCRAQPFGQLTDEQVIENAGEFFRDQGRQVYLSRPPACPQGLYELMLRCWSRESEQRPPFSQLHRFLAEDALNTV", "assay": "SelectScreen kinase profiling", "type": "biochemical", "experimental": "as §1"}, "CDK4": {"target": "CDK4 (Homo sapiens, UniProt P11802)", "sequence (P11802 whole entry)": "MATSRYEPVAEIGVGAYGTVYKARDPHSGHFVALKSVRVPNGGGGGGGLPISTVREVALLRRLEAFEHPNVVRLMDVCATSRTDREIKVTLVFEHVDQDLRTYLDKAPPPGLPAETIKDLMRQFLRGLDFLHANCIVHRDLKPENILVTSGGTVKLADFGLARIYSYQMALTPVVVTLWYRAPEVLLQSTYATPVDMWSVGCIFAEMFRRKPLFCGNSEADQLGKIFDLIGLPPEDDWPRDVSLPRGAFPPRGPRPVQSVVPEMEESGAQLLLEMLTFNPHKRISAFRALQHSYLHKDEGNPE", "sequence (P24385 whole entry partner)": "as the sequence (P24385 whole entry partner) above", "assay": "SelectScreen kinase profiling", "type": "biochemical", "experimental": "as §1"}, "KDR": {"target": "KDR (Homo sapiens, UniProt P35968)", "assay": "SelectScreen kinase profiling", "type": "biochemical", "experimental": "as §1"}, "CDK13": {"target": "CDK13 (Homo sapiens, UniProt Q14004)", "sequence (Q14004 whole entry)": "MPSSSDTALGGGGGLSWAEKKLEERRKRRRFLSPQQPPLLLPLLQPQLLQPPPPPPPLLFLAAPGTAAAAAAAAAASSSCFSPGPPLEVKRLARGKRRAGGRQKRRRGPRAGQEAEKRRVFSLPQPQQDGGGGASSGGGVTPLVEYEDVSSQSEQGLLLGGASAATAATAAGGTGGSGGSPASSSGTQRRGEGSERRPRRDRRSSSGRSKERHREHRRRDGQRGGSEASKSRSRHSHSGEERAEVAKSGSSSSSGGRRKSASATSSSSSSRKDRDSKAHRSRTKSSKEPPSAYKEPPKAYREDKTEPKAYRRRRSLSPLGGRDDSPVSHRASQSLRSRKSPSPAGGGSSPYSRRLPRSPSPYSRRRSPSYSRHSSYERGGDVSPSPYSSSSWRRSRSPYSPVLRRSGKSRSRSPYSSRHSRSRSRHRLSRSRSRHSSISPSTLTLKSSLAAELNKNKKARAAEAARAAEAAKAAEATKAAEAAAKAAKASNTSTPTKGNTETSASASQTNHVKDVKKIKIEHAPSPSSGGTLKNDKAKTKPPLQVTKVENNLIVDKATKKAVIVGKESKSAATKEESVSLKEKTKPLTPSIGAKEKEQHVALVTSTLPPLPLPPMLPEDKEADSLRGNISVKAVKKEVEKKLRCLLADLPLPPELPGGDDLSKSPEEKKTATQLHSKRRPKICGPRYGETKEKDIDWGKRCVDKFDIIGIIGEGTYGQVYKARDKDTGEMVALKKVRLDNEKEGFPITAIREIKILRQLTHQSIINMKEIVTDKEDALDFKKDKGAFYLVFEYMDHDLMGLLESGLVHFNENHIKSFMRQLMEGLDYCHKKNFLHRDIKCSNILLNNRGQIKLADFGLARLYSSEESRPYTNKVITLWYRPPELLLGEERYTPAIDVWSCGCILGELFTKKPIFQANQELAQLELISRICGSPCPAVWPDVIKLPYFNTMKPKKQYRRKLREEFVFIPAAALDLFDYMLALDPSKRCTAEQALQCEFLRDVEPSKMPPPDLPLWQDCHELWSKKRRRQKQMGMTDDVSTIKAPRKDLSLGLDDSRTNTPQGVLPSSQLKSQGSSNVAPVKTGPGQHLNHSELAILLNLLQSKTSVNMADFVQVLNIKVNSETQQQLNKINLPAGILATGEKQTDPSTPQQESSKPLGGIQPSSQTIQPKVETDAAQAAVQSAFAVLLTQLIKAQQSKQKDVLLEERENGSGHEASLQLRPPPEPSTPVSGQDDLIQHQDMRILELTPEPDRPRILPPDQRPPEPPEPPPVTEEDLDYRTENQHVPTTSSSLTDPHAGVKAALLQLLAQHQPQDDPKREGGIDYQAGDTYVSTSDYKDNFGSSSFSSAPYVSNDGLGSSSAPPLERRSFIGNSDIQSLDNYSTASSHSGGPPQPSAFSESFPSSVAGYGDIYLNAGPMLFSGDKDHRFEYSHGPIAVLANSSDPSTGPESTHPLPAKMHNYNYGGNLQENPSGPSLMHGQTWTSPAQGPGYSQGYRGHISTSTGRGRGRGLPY", "sequence (O75909 whole entry partner)": "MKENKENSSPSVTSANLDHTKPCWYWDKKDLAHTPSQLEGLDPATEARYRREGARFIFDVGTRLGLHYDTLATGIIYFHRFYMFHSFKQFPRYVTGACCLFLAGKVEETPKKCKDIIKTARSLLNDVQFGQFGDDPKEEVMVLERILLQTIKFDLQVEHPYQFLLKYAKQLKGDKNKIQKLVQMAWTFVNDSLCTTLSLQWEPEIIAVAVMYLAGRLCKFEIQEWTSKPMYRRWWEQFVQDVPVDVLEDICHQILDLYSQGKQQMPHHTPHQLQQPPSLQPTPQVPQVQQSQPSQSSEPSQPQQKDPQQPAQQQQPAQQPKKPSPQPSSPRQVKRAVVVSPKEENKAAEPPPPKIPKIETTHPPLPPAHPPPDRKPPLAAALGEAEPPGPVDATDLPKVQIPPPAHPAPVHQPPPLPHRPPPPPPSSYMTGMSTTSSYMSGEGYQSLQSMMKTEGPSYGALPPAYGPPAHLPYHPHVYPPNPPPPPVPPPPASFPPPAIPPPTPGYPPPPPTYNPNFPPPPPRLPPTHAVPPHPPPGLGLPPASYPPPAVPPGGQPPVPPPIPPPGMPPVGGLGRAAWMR", "assay": "SelectScreen kinase profiling", "type": "biochemical", "experimental": "as §1"}, "MV-4-11 xenograft": {"system": "MV-4-11 xenograft", "assay": "MV-4-11 xenograft model, anti-tumor activity", "type": "in vivo, BALB/c nude mice", "settings": "10 mg/kg intraperitoneal daily, 15 days, versus vehicle group", "text": "Given the potent inhibitory effect of LTM-1 on MV-4-11 cell proliferation in vitro, a previously reported xenograft animal model was established to measure the anti-tumor growth and development effects of LTM-1 ([Zhou et al., 2022]). The animal experimental design of this study was reviewed and confirmed by the Ethics Committee of China Pharmaceutical University. The experimental procedures complied with the ARRIVE guidelines (https://arriveguidelines.org/). Female BALB/c nude mice aged 4–6 weeks were purchased from Changzhou Cave Animal Co., Ltd. (Changzhou, China). Mice were housed in a specific pathogen-free (SPF) environment, where the temperature was precisely regulated to 25°C ± 2°C, the relative humidity was kept at 50% ± 5%, and a strict 12-h light-dark cycle was maintained. A 200 μL suspension of MV-4-11 cells (1 × 10^6 cells) was injected subcutaneously into the mice. […] The mice were administered drugs via intraperitoneal injection daily, with a total treatment period of 15 days. Mouse weight and tumor volume were measured every 3 days. The tumor volume was calculated using the formula (c × c × d)/2 (where c represents the smallest diameter, and d represents the largest diameter). […] In addition, the liver and kidney index levels were measured using an automatic biochemical analyzer to evaluate the toxic effects of LTM-1 on mice."}, "[1]": {"system": "MOLT-4, MOLM-16, HAL-01, and HL-60", "assay": "MTS cell proliferation assay, other AML cell lines together", "type": "cell-based", "settings": "range over MOLT-4, MOLM-16, HAL-01, HL-60; read-out: IC50 across other AML cell lines", "experimental": "The myeloid leukemia cell lines MV-4-11, MOLT-4, MOLM-16, HL-60, and the human B lymphocyte cell line […] were purchased from the American Type Culture Collection (ATCC, Manassas, VA, United States). The myeloid leukemia cell line HAL-01 was obtained from the Deutsche Sammlung von Mikroorganismen und Zellkulturen GmbH (DSMZ, Braunschweig, Germany). All cells were cultured in IMDM or RPMI -1640 medium supplemented with 10% FBS, 100 U/mL penicillin, and 100 μg/mL streptomycin. The cells were maintained in a humidified incubator with an atmosphere of 5% CO2 at 37°C.\nThe in vitro anti-proliferative activity of the compounds was determined using the CellTiter 96® AQueous NonRadioactive Cell Proliferation Assay Kit (Promega, Madison, United States) as previously described ([Ji et al., 2017]). In brief, 5–10 × 10^3 cells and 180 μL of medium were first seeded into each well of a 96-well plate. […] Finally, the optical density (OD) was then recorded at 490 nm and 690 nm using a microplate reader from Molecular Devices. […] The IC50 values of the compounds inhibiting cell proliferation were calculated using GraphPad Prism 10 (GraphPad Software Inc., San Diego, CA)."}, "60 different kinases": {"target": "60 different kinases", "assay": "SelectScreen kinase profiling, whole panel", "type": "biochemical", "settings": "ten-point dilution 0.25 μM to 128 μM; read-out: IC50 against each of the 60 evaluated kinases", "experimental": "as §1"}}, "data": [{"smiles": "O=S(=O)(c1ccc(C(O)CO)c(C(F)(F)F)c1)N1CCc2cc(C3CC3NCC3CCNCC3)ccc21", "note": "(stereo not shown) [LTM-1]", "values": [{"measurement": "IC50", "setting": "CDK7", "result": "> 10", "unit": "µM"}, {"measurement": "IC50", "setting": "PLK1", "result": "> 10", "unit": "µM"}, {"measurement": "IC50", "setting": "PLK2", "result": "> 10", "unit": "µM"}, {"measurement": "IC50", "setting": "CDK1", "result": "> 10", "unit": "µM"}, {"measurement": "IC50", "setting": "BLK", "result": "> 10", "unit": "µM"}, {"measurement": "IC50", "setting": "ABL1", "result": "> 10", "unit": "µM"}, {"measurement": "IC50", "setting": "DDR2", "result": "> 10", "unit": "µM"}, {"measurement": "IC50", "setting": "EPHB2", "result": "> 10", "unit": "µM"}, {"measurement": "IC50", "setting": "NTRK1", "result": "> 10", "unit": "µM"}, {"measurement": "IC50", "setting": "FES", "result": "> 10", "unit": "µM"}, {"measurement": "IC50", "setting": "ZAK", "result": "> 10", "unit": "µM"}, {"measurement": "IC50", "setting": "CDK6", "result": "> 10", "unit": "µM"}, {"measurement": "IC50", "setting": "PIM1", "result": "> 10", "unit": "µM"}, {"measurement": "IC50", "setting": "BTK", "result": "> 10", "unit": "µM"}, {"measurement": "IC50", "setting": "NTRK3", "result": "> 10", "unit": "µM"}, {"measurement": "IC50", "setting": "DDR1", "result": "> 10", "unit": "µM"}, {"measurement": "IC50", "setting": "CDK4", "result": "> 10", "unit": "µM"}, {"measurement": "IC50", "setting": "KDR", "result": "> 10", "unit": "µM"}, {"measurement": "IC50", "setting": "CDK13", "result": "> 10", "unit": "µM"}, {"measurement": "tumor growth (tumor volume)", "setting": "MV-4-11 xenograft", "result": "significantly reduced"}, {"measurement": "IC50", "setting": "[1]", "result": "0.19 to 0.39", "unit": "µM"}, {"measurement": "IC50", "setting": "60 different kinases", "result": "> 10", "unit": "µM"}]}]}
